Results: patent US20110014174A1, “Lysozyme, A Novel Vasodilator of Sepsis that can be inhibited by a Peroxidase and Hydroxyl Radical Scavengers” (UNIVERSITY OF MANITOBA, priority 2007, published 2011)
“Also recorded” adds a separate entry of the source. Like-named read-outs stand apart in the source and are kept apart here.

Key:
[1] = test system: phenylephrine contracted canine carotid artery ring preparation; assay: Contraction force and vasorelaxation in phenylephrine contracted canine carotid artery ring preparation; conditions: for force after HEPES buffer was added: ethanol 2×10^−7 mol/L control group, HEPES buffer instead of Lzm-S; for contraction after Lzm-S relative to the value pre-Lzm-S treatment: non-L-NMMA treated group (n=12), human Lzm-S 6.7×10^−7 mol/L; for contraction after Lzm-S relative to the pre-Lzm-S contraction: non-indomethacin treated group (n=4)
[2] = test system: Lzm-S-induced carotid artery vasodilation; assay: Prevention of Lzm-S-induced vasodilation by pretreatment agents in the carotid artery ring preparation; design: species or system canine; conditions: for contraction after Lzm-S relative to the value post-L-NMMA treatment: L-NMMA 10^−3 mol/L treated group (n=8); for contraction after Lzm-S relative to the post-indomethacin plateau: indomethacin 10^−6 mol/L treated group (n=5); for contraction after Lzm-S, % of the butanol-plateau: n-butanol pretreated
[3] = pretreatment with the agent, human Lzm-S 6.7×10^−7 mol/L, phenylephrine contracted ring

In the case of `OO` [H2O2, hydrogen peroxide], the “effect of H2O2 on force” value ([1]; 10^−4 mol/L) is reported as “progressive vasorelaxation over time”, the “effect of H2O2 on precontracted force” value ([1]; 10^−5 mol/L) is reported as “minimal effect” and the “effect of H2O2 on force” value ([1]; higher concentrations, 10^−3 to 10^−1 mol/L) is reported as “an initial increase in force that was followed by vasorelaxation; also recorded: vasoconstriction that was rapidly followed by vasodilation”. For the same molecule, the “effect of H2O2 on force” value ([1]; lower concentrations, FIG. 8) was “vasorelaxation was produced”.

With `CNC(=N)NCCC[C@H](N)C(=O)O` [L-NMMA, N^G-monomethyl-L-arginine] the “contraction with L-NMMA treatment” value ([1]; L-NMMA 10^−3 mol/L added after phenylephrine plateau, before Lzm-S) was 8.1±3.5 grams, the “contraction after Lzm-S relative to the value post-L-NMMA treatment” value ([2]; human Lzm-S 6.7×10^−7 mol/L, 5 minutes) was 37±22% and the “contraction after Lzm-S relative to the value post-L-NMMA treatment” value ([2]; human Lzm-S 6.7×10^−7 mol/L, 15 minutes) was 13±16%. For the same molecule, the “contraction after Lzm-S relative to the value post-L-NMMA treatment” value ([2]; human Lzm-S 6.7×10^−7 mol/L, 30 minutes, minus = below resting force) was −0.3±1% and the “inhibition of Lzm-S-induced vasodilation (words)” value (from here on “inhibition”) [2, 3] was “did not inhibit lysozyme induced vasodilation; also recorded: did not Prevent Vasodilation”.

For `CCO` [ethanol], the “force after HEPES buffer was added” value ([1]; 5 minutes) was 10.7±2.8 grams, the “force after HEPES buffer was added” value ([1]; 15 minutes) was 11±2.8 grams and the “force after HEPES buffer was added” value ([1]; 30 minutes) was 11±2.6 grams. For the same molecule, the “contraction with ethanol as compared with the phenylephrine contraction alone” value ([1]; ethanol treated control group, ethanol highest concentration 2×10^−7 mol/L, before HEPES buffer) was 10±2.6 grams, the “initial effect of ethanol on force” value ([1]; higher concentrations of ethanol, before Lzm-S) was “initial vasoconstriction” and the “inhibition” value [2, 3] was “inhibited the effect of lysozyme”. The “inhibition” value ([2]; pretreatment with the agent, human Lzm-S 6.7×10^−7 mol/L, phenylephrine contracted ring, listed as Ethanol) was “markedly effective”.

In the case of `COc1ccc2c(c1)c(CC(=O)O)c(C)n2C(=O)c1ccc(Cl)cc1` [indomethacin], the “force over 30 minutes when indomethacin was added” value ([1]; indomethacin 10^−6 mol/L after phenylephrine, before Lzm-S) is reported as 5.6±0.5 grams, the “contraction after Lzm-S relative to the post-indomethacin plateau” value ([2]; 5 minutes) is reported as 79±11% and the “contraction after Lzm-S relative to the post-indomethacin plateau” value ([2]; 15 minutes) is reported as 57±24%. The “contraction after Lzm-S relative to the post-indomethacin plateau” value ([2]; 30 minutes) was 39±25% and the “inhibition” value [2, 3] was “did not Prevent Vasodilation”.

With `CCCCO` [n-butanol] the “force after the alcohol was added, % of the phenylephrine-plateau response” value ([1]; n-butanol (10^−7 mol/L), before Lzm-S) was 61±17%, the “contraction after Lzm-S, % of the butanol-plateau” value ([2]; 5 minutes) was 84±9% and the “contraction after Lzm-S, % of the butanol-plateau” value ([2]; 15 minutes) was 62±21%. The “contraction after Lzm-S, % of the butanol-plateau” value ([2]; 30 minutes) was 23±27% and the “inhibition” value [2, 3] was “no inhibitory effect”.

In the case of `CNC[C@H](O)c1cccc(O)c1` [phenylephrine], the phenylephrine response ([1]; endothelial denuded preparation) is reported as 7.1±0.5 grams, the phenylephrine response ([1]; endothelial intact preparation) is reported as 6.7±0.7 grams and the phenylephrine contraction alone ([1]; ethanol treated control group, baseline before ethanol) is reported as 8.2±2.6 grams. For the same molecule, the “mean increase in contraction from resting force with phenylephrine” value ([1]; indomethacin treated group) was 7.5±1.4 grams, the “mean increase in force from resting tension with phenylephrine” value ([1]; non-indomethacin time control group) was 6.9±2.7 grams and the “mean increase in resting force caused by phenylephrine” value ([1]; phenylephrine 10^−5 mol/L, L-NMMA treated group) was 6.2±2.4 grams. The “mean increase in contraction from resting force caused by phenylephrine” value ([1]; phenylephrine 10^−5 mol/L, non-L-NMMA treated group) was 7.1±2.1 grams.

With `N[C@@H](CCC(=O)N[C@@H](CS)C(=O)NCC(=O)O)C(=O)O` [reduced-glutathione, reduced glutathione] the “inhibition” value [2, 3] was “neither DECTA (10^−2 mol/L), deferoxamine methanesulfonate salt (10^−2 mol/L), nor the reducing agents N-acetylcysteine (10^−3 mol/L), ascorbic acid (10^−4 mol/L), and reduced-glutathione (10^−3 mol/L) were found to inhibit Lzm-S-induced vasodilation”.

In the case of `CC[N+](CC)(CC)CC` [tetraethylammonium], the “inhibition” value [2] is reported as “none of these inhibitors prevented Lzm-S's vasodilatory response”.

For charybdotoxin, the “inhibition” value [2, 3] was “none of these inhibitors prevented Lzm-S's vasodilatory response”.

With deferoxamine methanesulfonate salt the “inhibition” value [2, 3] was “neither DECTA (10^−2 mol/L), deferoxamine methanesulfonate salt (10^−2 mol/L), nor the reducing agents N-acetylcysteine (10^−3 mol/L), ascorbic acid (10^−4 mol/L), and reduced-glutathione (10^−3 mol/L) were found to inhibit Lzm-S-induced vasodilation”.

“guanosine 3′,5′-cyclic monophosphorothioate, β-phenyl-1,N^2-etheno-8-bromo-Rp-isomer, sodium salt [PKG inhibitor]” was tested, and the “inhibition” value ([2]; pretreatment with the agent, human Lzm-S 6.7×10^−7 mol/L, phenylephrine contracted ring, listed as protein kinase G inhibitor, sodium salt) was “prevented lysozyme induced vasdodilation” and the “inhibition” value ([2]; pretreatment with the agent, human Lzm-S 6.7×10^−7 mol/L, phenylephrine contracted ring, sodium salt) was “found to inhibit Lzm-S's effect”.

With “iberiotoxin: used for inhibition of potassium channels (QFTDVDCSVSKECWSVCKDLFGVDRGKCMGKKCRCYQ; Iberiotoxin; UniProt P24663 1-37, looked up)” the “inhibition” value [2, 3] was “none of these inhibitors prevented Lzm-S's vasodilatory response”.

B1: human Lzm-S: Human lysozyme purchased from EMD Biosciences; used in all experiments after the initial ones (protein, UniProt P61626 19-148, looked up)
Lysozyme C: KVFERCELARTLKRLGMDGYRGISLANWMCLAKWESGYNTRATNYNAGDRSTDYGIFQINSRYWCNDGKTPGAVNACHLSCSALLQDNIADAVACAKRVVRDPQGIRAWVAWRNRCQNRDVRQYVQGCGV
With B1 the “vasorelaxation in the carotid artery preparation (mean values)” value ([1]; FIG. 2 mean values) was “significant vasorelaxation”, the “contraction after Lzm-S, % of the phenylephrine plateau” value ([1]; endothelium denuded preparation (n=4), 5 minutes) was 79±18% and the “contraction after Lzm-S, % of the phenylephrine plateau” value ([1]; endothelium denuded preparation (n=4), 15 minutes) was 58±21%. The “contraction after Lzm-S, % of the phenylephrine plateau” value ([1]; endothelium denuded preparation (n=4), 30 minutes) was 54±20%, the “contraction after Lzm-S, % of the phenylephrine plateau” value ([1]; endothelium intact preparation (n=4), 5 minutes) was 64±25% and the “contraction after Lzm-S, % of the phenylephrine plateau” value ([1]; endothelium intact preparation (n=4), 15 minutes) was 53±33%. For the same molecule, the “contraction after Lzm-S, % of the phenylephrine plateau” value ([1]; endothelium intact preparation (n=4), 30 minutes) was 76±21%, the “constriction after lysozyme relative to the phenylephrine value” ([1]; example traces FIG. 1, phenylephrine constricted carotid ring) was “about 40%” and the “vasodilatory effect” value ([1]; human Lzm-S 3.3×10^−7 mol/L) was “minimal vasodilatory effect”. The “reduction in contraction” value ([1]; human Lzm-S higher concentration (6.7×10^−7 mol/L)) was “nearly eliminated the increase in force induced by phenylephrine”, the “contraction after Lzm-S relative to the value pre-Lzm-S treatment” value ([1]; 5 minutes) was 23±24% and the “contraction after Lzm-S relative to the value pre-Lzm-S treatment” value ([1]; 15 minutes) was 8±27%. The “contraction after Lzm-S relative to the value pre-Lzm-S treatment” value ([1]; 30 minutes) was 2±34%, the “contraction after Lzm-S relative to the pre-Lzm-S contraction” value ([1]; 5 minutes) was 71±16% and the “contraction after Lzm-S relative to the pre-Lzm-S contraction” value ([1]; 15 minutes) was 45±19%. For the same molecule, the “contraction after Lzm-S relative to the pre-Lzm-S contraction” value ([1]; 30 minutes) was 19±15%.
